How the values were obtained:
[1] = tested on: Eurotium rubrum DSM 62631; assay: disc diffusion assay; format: cell-based; conditions: for zone of inhibition at 50 µg/disc: Aspergillus ruber, DSM62631, 50 μg per disc, read-out: growth inhibition zone
Experimental: (§1) Compounds 1 and 2 were tested against a range of microorganisms, namely the Gram-positive bacterium Bacillus megaterium DSM 32, the Gram-negative bacterium Escherichia coli JM 83 and Pseudoroseovarius crassostreae DSM 16950^T; the fungal organisms utilized were Eurotium rubrum DSM 62631, Microbotryum violaceum MB#110229, and Mycotypha microspora MB#271115. Tests were performed according to Reference. 50 μg of pure compounds or positive controls were taken from a solution of 1 mg/mL and applied on sterile paper discs on agar plates of the corresponding medium for each test organism. Multidrug-resistant pathogens Escherichia coli I-11276b, MRSA LT-1338, MRSA LT-1334 were tested with 4 μg of compound 2 in each disc. Thereafter, suspensions of the organisms were sprayed on the agar and incubated. Miconazole and streptomycin were used as positive controls. Inhibition zones were measured from the edge of the disc to the end of the area free of growth. Only total inhibition (>1 mm) was considered as a positive result.

[2] = tested on: Microbotryum violaceum MB#110229; assay: disc diffusion assay; format: cell-based; conditions: 50 μg per disc, read-out: growth inhibition zone
Experimental: as §1

[3] = tested on: Mycotypha microspora MB#271115; assay: disc diffusion assay; format: cell-based; conditions: 50 μg per disc, read-out: growth inhibition zone
Experimental: as §1

[4] = tested on: Pseudoroseovarius crassostreae DSM 16950T; assay: disc diffusion assay; format: cell-based; conditions: Aliiroseovarius crassostreae, DSM16950T, 50 μg per disc, read-out: growth inhibition zone
Experimental: as §1

Escherichia coli DSM 498 = assay: disc diffusion assay; format: cell-based; conditions: DSM498, 50 μg per disc, read-out: growth inhibition zone
human GPR84 [5] = target: T1, human GPR84 (Homo sapiens, UniProt Q9NQS5); assay: β-arrestin recruitment assay (β-galactosidase enzyme complementation) in CHO-hGPR84 cells; format: cell-based; conditions: for EC50: n = 5, read-out: β-Arrestin Assay EC50 ± SD; for Emax: relative to maximal effect of full agonist embelin (10 μM) = 100%, read-out: β-Arrestin Assay Efficacy (Emax)
T1 construct: CHO-hGPR84)
Text: (§2) cAMP accumulation assays determined the potency of the test compounds to inhibit forskolin-induced cAMP accumulation in Chinese hamster ovary (CHO) cells, stably expressing human GPR84, whereas the β-arrestin recruitment assays used the enzyme complementation technology.
The recombinant CHO cell line expressing the human GPR84 (CHO-hGPR84) with a β-galactosidase fragment and β-arrestin containing the complementary fragment of the enzyme was purchased from DiscoverX (Fremont, CA, USA). This cell line was used for the β-arrestin recruitment assays as well as for cAMP accumulation assays. […] Stock solutions of compounds were prepared in DMSO (final DMSO concentration: 1%). Data were analyzed using Graph Pad Prism version 6.0 (San Diego, CA, USA). Concentration-response data were fitted by nonlinear regression to estimate EC50 values.
β-arrestin assays were performed as previously described. Briefly, CHO cells expressing the human GPR84 with a β-galactosidase fragment and β-arrestin containing the complementary fragment of the enzyme were incubated with a series of compound dilutions (in DMSO, final DMSO concentration: 1%) for 90 min before adding the detection reagent (DiscoverX®, Fremont, CA, USA). After 60 min of incubation at room temperature the luminescence was measured using an NXT plate reader (Perkin-Elmer, Rodgau, Germany). Three to five independent experiments were performed, each in duplicates.

human GPR84 [6] = target: T1, human GPR84; assay: cAMP accumulation assay in CHO cells expressing human GPR84; format: cell-based; design: Emax: dose or concentration left out as unconfirmed; conditions: for activity in cAMP assay (in words): Gi-mediated signaling; for cAMP Assay percent receptor activation: at 100 μM, forskolin 10 μM; for EC50: read-out: cAMP Assay EC50 ± SD
Text: as §2
The recombinant CHO cell line expressing the human GPR84 (CHO-hGPR84) with a β-galactosidase fragment and β-arrestin containing the complementary fragment of the enzyme was purchased from DiscoverX (Fremont, CA, USA). This cell line was used for the β-arrestin recruitment assays as well as for cAMP accumulation assays. The CHO-hGPR84 cells were cultured in F12 medium supplemented with 10% FCS, 100 units/mL penicillin G, 100 μg/mL streptomycin, 800 μg/mL G 418, 300 μg/mL hygromycin B, and 1% ultraglutamin (Invitrogen, Carlsbad, CA or Sigma-Aldrich, St. Louis, MO, USA). Stock solutions of compounds were prepared in DMSO (final DMSO concentration: 1%). Data were analyzed using Graph Pad Prism version 6.0 (San Diego, CA, USA). Concentration-response data were fitted by nonlinear regression to estimate EC50 values.
cAMP assays were performed as previously described. CHO cells overexpressing the human GPR84 were stimulated with forskolin (10 μM) in the absence (control) or presence of test compound for 15 min. The reaction was stopped by the addition of hot (90 °C) lysis solution containing 4 mM EDTA and 0.01% Triton X-100 in water. cAMP levels were quantified by a radioactive assay using [³H]cAMP (Perkin-Elmer, Rodgau, Germany). The forskolin-induced change in cAMP concentration in the presence of the test compound was expressed as a percentage of the response to forskolin in the absence of agonist (% of control). Three independent experiments, each in duplicates were performed.

[7] = tested on: Bacillus megaterium DSM 32; assay: disc diffusion assay; format: cell-based; conditions: Priestia megaterium, DSM32, 50 μg per disc, read-out: growth inhibition zone
Experimental: as §1

MRSA LT-1338 = assay: disc diffusion assay, multidrug-resistant pathogen; format: cell-based; conditions: Staphylococcus aureus; MRSA LT-1338 (multidrug-resistant); 4 μg per disc; read-out: growth inhibition zone
Experimental: as §1

MRSA LT-1334 = assay: disc diffusion assay, multidrug-resistant pathogen; format: cell-based; conditions: Staphylococcus aureus; MRSA LT-1334 (multidrug-resistant); 4 μg per disc; read-out: growth inhibition zone
Experimental: as §1

[8] = tested on: Escherichia coli I-11276b; assay: disc diffusion assay, multidrug-resistant pathogen; format: cell-based; conditions: I11276B; Escherichia coli I-11276b (multidrug-resistant); 4 μg per disc; read-out: growth inhibition zone
Experimental: as §1

human GPR84 [9] = target: T1, human GPR84; design: method as in PMID 28406627; conditions: relative to maximal effect of full agonist decanoic acid (100 μM) = 100%; cited from earlier work

T1 sequence (Q9NQS5 whole entry): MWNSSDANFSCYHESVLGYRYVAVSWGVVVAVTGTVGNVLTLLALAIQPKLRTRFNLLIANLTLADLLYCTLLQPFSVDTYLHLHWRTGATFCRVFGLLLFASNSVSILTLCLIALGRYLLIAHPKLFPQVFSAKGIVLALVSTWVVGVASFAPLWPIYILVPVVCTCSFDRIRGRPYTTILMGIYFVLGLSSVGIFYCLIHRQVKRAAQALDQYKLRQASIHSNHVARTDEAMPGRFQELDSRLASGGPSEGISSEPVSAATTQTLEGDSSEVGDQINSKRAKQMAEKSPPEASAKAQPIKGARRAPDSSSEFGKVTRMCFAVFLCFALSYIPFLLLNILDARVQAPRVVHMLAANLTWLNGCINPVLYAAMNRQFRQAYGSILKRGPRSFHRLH

| Compound | zone of inhibition at 50 µg/disc [2] [mm] | zone of inhibition at 50 µg/disc [3] [mm] | zone of inhibition at 50 µg/disc [4] [mm] | zone of inhibition at 50 µg/disc (Escherichia coli DSM 498) [mm] | EC50 (human GPR84 [5]) [µM] | activity in cAMP assay (in words) (human GPR84 [6]) | cAMP Assay percent receptor activation (human GPR84 [6]) [%] | EC50 (human GPR84 [6]) [µM] | zone of inhibition at 50 µg/disc [1] [mm] | zone of inhibition at 50 µg/disc [7] [mm] | Emax (human GPR84 [5]) [%] | also measured |
| --- | --- | --- | --- | --- | --- | --- | --- | --- | --- | --- | --- | --- |
| CCCCCC[C@H]1C[C@H]1CCCC(=O)O (relative stereo) [Compound 1, cis-4-(2-hexylcyclopropyl)-butanoic acid] | 8 | 3 | 5 | 2 | > 30 | inactive | 0 | > 100 |  |  |  | growth inhibition zone ([1]; 50 μg per disc): devoid of activity; activity in β-arrestin assay (in words) (human GPR84 [5]): inactive; β-Arrestin Assay percent receptor activation (human GPR84 [5]; at 30 μM): 17% |
| CCCCCC[C@H]1C[C@H]1CC(=O)O (relative stereo) [Compound 2, cis-2-(2-hexylcyclopropyl)-acetic acid] | 10 | 6 | 5 | 3 | 0.114 ± 0.135 | did neither induce nor block Gi-mediated signaling | 24 | > 100 | 10 | 10 | 54 | zone of inhibition at 4 µg/disc (MRSA LT-1338): 2 mm; zone of inhibition at 4 µg/disc (MRSA LT-1334): 3 mm; zone of inhibition at 4 µg/disc [8]: 2 mm; potency in β-arrestin assay relative to dodecanoic acid (human GPR84 [5]; fold more potent than dodecanoic acid (EC50 = 2.84 μM)): 25 fold |
| CCCCCCCCCC(=O)O [Decanoic acid] |  |  |  |  |  |  |  |  |  |  |  | cAMP Assay Efficacy (Emax) (human GPR84 [9]): 100% [26] |
| CCCCCCCCCCCC(=O)O [Dodecanoic acid, reference compound] |  |  |  |  | 2.84 ± 0.54 |  |  | 8.87 ± 4.46 |  |  | 95 | Emax (human GPR84 [6]; CHO, read-out: cAMP Assay Efficacy (Emax)): 94% |
| Clc1ccc(COC(Cn2ccnc2)c2ccc(Cl)cc2Cl)c(Cl)c1 (stereo not shown) [Miconazole, reference compound] | 6 | 9 |  |  |  |  |  |  | 8 |  |  |  |
| [H]/N=C(/N)N[C@H]1[C@H](O)[C@@H](O)[C@H](O[C@@H]2O[C@@H](C)[C@](O)(C=O)[C@H]2O[C@@H]2O[C@@H](CO)[C@H](O)[C@@H](O)[C@@H]2NC)[C@@H](N/C(N)=N\[H])[C@@H]1O [Streptomycin, reference compound] |  |  | 6 | 6 |  |  |  |  |  | 9 |  |  |

Reference: PMC6213206, “Cyclopropane-Containing Fatty Acids from the Marine Bacterium Labrenzia sp. 011 with Antimicrobial and GPR84 Activity” (Marine Drugs, 2018)
